Source: ChEMBL document CHEMBL4251633, “Design, synthesis, biological evaluation and cocrystal structures with tubulin of chiral β-lactam bridged combretastatin A-4 analogues as potent antitumor agents” (Eur J Med Chem, 2018)
Calls of active or inactive are those of the source. The calls are words filed in the database; no cut-off is given here.

How the values were obtained:
SK-OV-3 = experiment: Antiproliferative activity against human SKOV3 cells after 48 hrs by MTT assay; conditions: SK-OV-3, 48 h
HeLa [1] = experiment: Antiproliferative activity against human HeLa cells after 48 hrs by MTT assay; assay type: functional, cell-based
A2780 = experiment: cells; conditions: Homo sapiens, A2780, 48 h
Description: Antiproliferative activity against human A2780 cells after 48 hrs by MTT assay

MDA-MB-231 = experiment: Antiproliferative activity against human MDA-MB-231 cells after 48 hrs by MTT assay; assay type: functional, cell-based; conditions: MDA-MB-231, 48 h
Homo sapiens = species: Homo sapiens; experiment: Disruption of microtubule structure in human SKOV3 cells assessed as decrease in density at 50 nM after 24 hrs by DAPI staining based immunofluorescence assay; assay type: cell-based
HeLa [2] = experiment: Inhibition of alpha-tubulin polymerization in human HeLa cells assessed as increase in ratio of supernatant faction to pellet fraction at 500 nM after 6 hrs by Western blot analysis; assay type: cell-based

C=C1C(=O)N(c2cc(OC)c(OC)c(OC)c2)[C@H]1c1ccc(OC)c(OCc2ccccc2)c1
IC50 (SK-OV-3): > 20000 nM | IC50 (HeLa [1]): > 20000 nM | IC50 (A2780): > 20000 nM | IC50 (MDA-MB-231): > 20000 nM

COc1ccc([C@H]2[C@H](Br)C(=O)N2c2cc(OC)c(OC)c(OC)c2)cc1O
IC50 (SK-OV-3): 9 nM | IC50 (HeLa [1]): 13 nM | IC50 (A2780): 8 nM | IC50 (MDA-MB-231): 10 nM

COc1ccc([C@H]2[C@H](n3cc(CO)nn3)C(=O)N2c2cc(OC)c(OC)c(OC)c2)cc1O
IC50 (SK-OV-3): 83 nM | IC50 (HeLa [1]): 33 nM | IC50 (A2780): 15 nM | IC50 (MDA-MB-231): 28 nM

CC(=O)O[C@H]1C(=O)[C@@]2(C)[C@H]([C@H](OC(=O)c3ccccc3)[C@]3(O)C[C@H](OC(=O)[C@H](O)[C@@H](NC(=O)c4ccccc4)c4ccccc4)C(C)=C1C3(C)C)[C@]1(OC(C)=O)CO[C@@H]1C[C@@H]2O
Activity (Homo sapiens): inactive | tubulin polymerization inhibition (active/inactive) (HeLa [2]): inactive

COc1ccc([C@H]2[C@@H](C)C(=O)N2c2cc(OC)c(OC)c(OC)c2)cc1O
IC50 (SK-OV-3): 31 to 63 nM | IC50 (HeLa [1]): 31 to 63 nM | IC50 (A2780): 31 to 63 nM | IC50 (MDA-MB-231): 31 to 63 nM

C=C1C(=O)N(c2cc(OC)c(OC)c(OC)c2)[C@H]1c1ccc(OC)c(OC(C)=O)c1
IC50 (SK-OV-3): 104 nM | IC50 (HeLa [1]): 116 nM | IC50 (A2780): 81 nM | IC50 (MDA-MB-231): 133 nM

C=C1C(=O)N(c2cc(OC)c(OC)c(OC)c2)[C@H]1c1ccc(OC)c(OC)c1
IC50 (SK-OV-3): 2260 nM | IC50 (HeLa [1]): 3160 nM | IC50 (A2780): 854 nM | IC50 (MDA-MB-231): 1020 nM

C=CC(=O)Nc1cc([C@H]2C(=C)C(=O)N2c2cc(OC)c(OC)c(OC)c2)ccc1OC
IC50 (SK-OV-3): 63 nM | IC50 (HeLa [1]): 125 nM | IC50 (A2780): 65 nM | IC50 (MDA-MB-231): 34 nM

C=C1C(=O)N(c2cc(OC)c(OC)c(OC)c2)[C@H]1c1ccc(OC)c(OCC)c1
IC50 (SK-OV-3): 1140 nM | IC50 (HeLa [1]): 2030 nM | IC50 (A2780): 854 nM | IC50 (MDA-MB-231): 958 nM

C=C1C(=O)N(c2cc(OC)c(OC)c(OC)c2)[C@H]1c1ccc(OC)c(N)c1
IC50 (SK-OV-3): 36 nM | IC50 (HeLa [1]): 32 nM | IC50 (A2780): 31 nM | IC50 (MDA-MB-231): 40 nM

C=C1C(=O)N(c2cc(OC)c(OC)c(OC)c2)[C@H]1c1ccc(OC)c(OC(C)C)c1
IC50 (SK-OV-3): 18000 nM | IC50 (HeLa [1]): > 20000 nM | IC50 (A2780): 11300 nM | IC50 (MDA-MB-231): 15900 nM

C=C1C(=O)N(c2cc(OC)cc(OC)c2)[C@H]1c1ccc(OC)c(O)c1
IC50 (SK-OV-3): 175 nM | IC50 (HeLa [1]): 295 nM | IC50 (A2780): 112 nM | IC50 (MDA-MB-231): 125 nM

C=C1C(=O)N(c2cc(OC)c(OC)c(OC)c2)[C@H]1c1ccc(OC)cc1
IC50 (SK-OV-3): > 20000 nM | IC50 (HeLa [1]): > 20000 nM | IC50 (A2780): > 20000 nM | IC50 (MDA-MB-231): > 20000 nM

C=C1C(=O)N(c2cc(OC)c(OC)c(OC)c2)[C@H]1c1ccc(OC)c(F)c1
IC50 (SK-OV-3): 136 nM | IC50 (HeLa [1]): 131 nM | IC50 (A2780): 121 nM | IC50 (MDA-MB-231): 112 nM

C=C1C(=O)N(c2ccc(OC)cc2)[C@H]1c1ccc(OC)c(O)c1
IC50 (SK-OV-3): > 20000 nM | IC50 (HeLa [1]): > 20000 nM | IC50 (A2780): > 20000 nM | IC50 (MDA-MB-231): > 20000 nM

C=C1C(=O)N(c2ccccc2)[C@H]1c1ccccc1
IC50 (SK-OV-3): > 20000 nM | IC50 (HeLa [1]): > 20000 nM | IC50 (A2780): > 20000 nM | IC50 (MDA-MB-231): > 20000 nM

COc1ccc([C@@H]2[C@H](C)C(=O)N2c2cc(OC)c(OC)c(OC)c2)cc1O
IC50 (SK-OV-3): 3270 nM | IC50 (HeLa [1]): 3920 nM | IC50 (A2780): 5750 nM | IC50 (MDA-MB-231): 5140 nM

C=C1C(=O)N(c2cc(OC)c(OC)c(OC)c2)[C@H]1c1ccc(C)cc1
IC50 (SK-OV-3): 265 nM | IC50 (HeLa [1]): 209 nM | IC50 (A2780): 127 nM | IC50 (MDA-MB-231): 193 nM

COc1ccc([C@H]2/C(=C/c3ccccc3)C(=O)N2c2cc(OC)c(OC)c(OC)c2)cc1O
IC50 (SK-OV-3): 2990 nM | IC50 (HeLa [1]): 4730 nM | IC50 (A2780): 2540 nM | IC50 (MDA-MB-231): 3160 nM

C=C1C(=O)N(c2cc(OC)c(OC)c(OC)c2)[C@H]1c1ccc(OC)c(OS(=O)(=O)c2ccc(C)cc2)c1
IC50 (SK-OV-3): 12100 nM | IC50 (HeLa [1]): 17800 nM | IC50 (A2780): > 20000 nM | IC50 (MDA-MB-231): 12800 nM

COc1ccc([C@H]2/C(=C/c3ccc(C(C)(C)C)cc3)C(=O)N2c2cc(OC)c(OC)c(OC)c2)cc1O
IC50 (SK-OV-3): > 20000 nM | IC50 (HeLa [1]): > 20000 nM | IC50 (A2780): > 20000 nM | IC50 (MDA-MB-231): > 20000 nM

C=C1C(=O)N(c2cccc(OC)c2)[C@H]1c1ccc(OC)c(O)c1
IC50 (SK-OV-3): 1390 nM | IC50 (HeLa [1]): 2170 nM | IC50 (A2780): 677 nM | IC50 (MDA-MB-231): 1370 nM

C=C1C(=O)N(c2cc(OC)c(OC)c(OC)c2)[C@H]1c1cc(OC)c(OC)c(OC)c1
IC50 (SK-OV-3): 365 nM | IC50 (HeLa [1]): 547 nM | IC50 (A2780): 215 nM | IC50 (MDA-MB-231): 784 nM

C=C1C(=O)N(c2cc(OC)c(OC)c(OC)c2)[C@H]1c1ccc(OC)c(O[Si](C)(C)C(C)(C)C)c1
IC50 (SK-OV-3): 414 nM | IC50 (HeLa [1]): 657 nM | IC50 (A2780): 287 nM | IC50 (MDA-MB-231): 560 nM

COc1ccc([C@H]2[C@H](CO)C(=O)N2c2cc(OC)c(OC)c(OC)c2)cc1N
IC50 (SK-OV-3): 8 nM | IC50 (HeLa [1]): 44 nM | IC50 (A2780): 35 nM | IC50 (MDA-MB-231): 27 nM

COc1ccc([C@@H]2N(c3cc(OC)c(OC)c(OC)c3)C(=O)[C@]2(O)CO)cc1O
IC50 (SK-OV-3): 2070 nM | IC50 (HeLa [1]): 2100 nM | IC50 (A2780): 1540 nM | IC50 (MDA-MB-231): 2320 nM

COc1ccc([C@H]2[C@@H](C)C(=O)N2c2cc(OC)c(OC)c(OC)c2)cc1N
IC50 (SK-OV-3): 59 nM | IC50 (HeLa [1]): 215 nM | IC50 (A2780): 81 nM | IC50 (MDA-MB-231): 63 nM

COc1ccc([C@H]2[C@H](C)C(=O)N2c2cc(OC)c(OC)c(OC)c2)cc1N
IC50 (SK-OV-3): 8 nM | IC50 (HeLa [1]): 35 nM | IC50 (A2780): 21 nM | IC50 (MDA-MB-231): 17 nM

C=C1C(=O)N(c2cc(OC)c(OC)c(OC)c2)[C@H]1c1ccccc1
IC50 (SK-OV-3): > 20000 nM | IC50 (HeLa [1]): > 20000 nM | IC50 (A2780): > 20000 nM | IC50 (MDA-MB-231): > 20000 nM

C=C1C(=O)N(c2cc(OC)c(OC)c(OC)c2)[C@H]1c1ccc(OC)c(Cl)c1
IC50 (SK-OV-3): 341 nM | IC50 (HeLa [1]): 371 nM | IC50 (A2780): 316 nM | IC50 (MDA-MB-231): 512 nM

COc1ccc([C@H]2[C@@H](OC(=O)CCC(=O)O)C(=O)N2c2cc(OC)c(OC)c(OC)c2)cc1O
IC50 (SK-OV-3): 210 nM | IC50 (HeLa [1]): 178 nM | IC50 (A2780): 79 nM | IC50 (MDA-MB-231): 102 nM

C=C1C(=O)N(c2cc(OC)c(OC)c(OC)c2)[C@H]1c1cccc(O)c1
IC50 (SK-OV-3): 14500 nM | IC50 (HeLa [1]): 15000 nM | IC50 (A2780): 10500 nM | IC50 (MDA-MB-231): 6640 nM

COc1ccc([C@@H]2CC(=O)N2c2cc(OC)c(OC)c(OC)c2)cc1O
IC50 (SK-OV-3): 24 nM | IC50 (HeLa [1]): 30 nM | IC50 (A2780): 22 nM | IC50 (MDA-MB-231): 28 nM

COc1ccc([C@@H]2[C@@H](C)C(=O)N2c2cc(OC)c(OC)c(OC)c2)cc1O
IC50 (SK-OV-3): 650 nM | IC50 (HeLa [1]): 807 nM | IC50 (A2780): 771 nM | IC50 (MDA-MB-231): 1080 nM

COc1ccc([C@H]2[C@@H](OC)C(=O)N2c2cc(OC)c(OC)c(OC)c2)cc1O
IC50 (SK-OV-3): 2210 nM | IC50 (HeLa [1]): 1790 nM | IC50 (A2780): 1220 nM | IC50 (MDA-MB-231): 1960 nM

COc1ccc([C@H]2[C@@H](CO)C(=O)N2c2cc(OC)c(OC)c(OC)c2)cc1N
IC50 (SK-OV-3): 54 nM | IC50 (HeLa [1]): 328 nM | IC50 (A2780): 327 nM | IC50 (MDA-MB-231): 107 nM

C=C1C(=O)N(c2cc(OC)c(OC)c(OC)c2)[C@H]1c1ccc(OC)c(OCCC)c1
IC50 (SK-OV-3): 5260 nM | IC50 (HeLa [1]): 6890 nM | IC50 (A2780): 3420 nM | IC50 (MDA-MB-231): 5620 nM

COc1ccc([C@H]2[C@H](NS(C)(=O)=O)C(=O)N2c2cc(OC)c(OC)c(OC)c2)cc1O
IC50 (SK-OV-3): 231 nM | IC50 (HeLa [1]): 192 nM | IC50 (A2780): 164 nM | IC50 (MDA-MB-231): 254 nM

COC[C@@]1(OC)C(=O)N(c2cc(OC)c(OC)c(OC)c2)[C@H]1c1ccc(OC)c(O)c1
IC50 (SK-OV-3): > 20000 nM | IC50 (HeLa [1]): > 20000 nM | IC50 (A2780): 17700 nM | IC50 (MDA-MB-231): > 20000 nM

COc1ccc([C@H]2[C@H](NC(C)=O)C(=O)N2c2cc(OC)c(OC)c(OC)c2)cc1O
IC50 (SK-OV-3): 32 nM | IC50 (HeLa [1]): 35 nM | IC50 (A2780): 33 nM | IC50 (MDA-MB-231): 47 nM

COc1ccc([C@H]2[C@H](NC(=O)c3ccccc3)C(=O)N2c2cc(OC)c(OC)c(OC)c2)cc1O
IC50 (SK-OV-3): 45 nM | IC50 (HeLa [1]): 24 nM | IC50 (A2780): 27 nM | IC50 (MDA-MB-231): 47 nM
